IC50 data for 17 compounds are collected here from US12319672B2, “Alpha-D-galactopyranoside derivatives” (Idorsia Pharmaceuticals Ltd, priority 2019, dated 2025).

Usually IC50 stands for the point on the concentration scale where inhibition reaches its midpoint. A lower IC50 goes with higher potency.

The target of one assay is human Gal-1 (hGal-1). As to the kind of experiment: Competitive binding assay: binding of biotinylated hGal-1 to microplate-adsorbed asialofetuin (ASF). The following applies: Activities on hGal-1; mean values of several measurements. The method, boiled down:
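For hGal-1, a variant with all six cysteines replaced by serines is preferred. Either galectin, biotinylated at 300-1000 ng/mL, competes with compound for microplate-bound ASF over 3 h at 4° C; peroxidase/ABTS detection gives IC50, averaged.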

The next assay has as its target human Gal-3 (hGal-3) (Homo sapiens (Human), UniProt P17931). The assay can be described thus: Competitive binding assay: binding of biotinylated hGal-3 to microplate-adsorbed asialofetuin (ASF). The settings on record: Activity on hGal-3; mean values of several measurements. The method, boiled down:
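Spectrophotometric readout (streptavidin-peroxidase, ABTS) of biotinylated galectin retained on ASF-coated wells. Biotinylated hGal-1 or hGal-3, 300-1000 ng/mL, co-incubated with test compound 3 h at 4° C, then washed. Mean IC50 from repeat runs.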

Sequence of human Gal-1 (hGal-1) (P09382 2-135 limits assumed): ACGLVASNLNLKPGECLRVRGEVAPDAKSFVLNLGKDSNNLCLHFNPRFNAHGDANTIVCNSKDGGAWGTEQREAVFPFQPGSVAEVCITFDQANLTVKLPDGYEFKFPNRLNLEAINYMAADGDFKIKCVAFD
Sequence of human Gal-3 (hGal-3) (P17931 whole entry): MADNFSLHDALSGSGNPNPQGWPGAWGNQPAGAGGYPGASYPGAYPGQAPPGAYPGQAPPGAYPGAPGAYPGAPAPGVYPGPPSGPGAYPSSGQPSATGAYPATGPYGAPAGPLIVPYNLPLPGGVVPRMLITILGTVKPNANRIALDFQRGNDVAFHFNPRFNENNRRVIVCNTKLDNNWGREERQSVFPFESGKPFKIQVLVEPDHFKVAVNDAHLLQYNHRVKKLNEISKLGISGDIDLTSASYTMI

On to `CCN=S1(=O)CCC(n2cc(C[C@H]3O[C@H](CO)[C@H](O)[C@H](n4cc(-c5cc(F)c(F)c(F)c5)nn4)[C@H]3OC)nn2)CC1` (stereo partly drawn) [Example 4.24, 1-(ethylimino)-4-(4-(((2R,3R,4S,5R,6R)-5-hydroxy-6-(hydroxymethyl)-3-methoxy-4-(4-(3,4,5-trifluorophenyl)-1H-1,2,3-triazol-1-yl)tetrahydro-2H-pyran-2-yl)methyl)-1H-1,2,3-triazol-1-yl)hexahydro-1l6-thiopyran 1-oxide], for which the IC50 stood at 310 nM at human Gal-1 (hGal-1) and 54 nM at human Gal-3 (hGal-3).

Consider `CN=S(=O)(C(C)C)N1CCC(c2cn(C[C@H]3O[C@H](CO)[C@H](O)[C@H](n4cc(-c5cc(F)c(F)c(F)c5)nn4)[C@H]3OC)nn2)CC1` (stereo partly drawn) [Example 4.25, (2R,3R,4S,5R,6R)-2-(hydroxymethyl)-5-methoxy-6-((4-(1-(N-methylpropan-2-ylsulfonimidoyl)piperidin-4-yl)-1H-1,2,3-triazol-1-yl)methyl)-4-(4-(3,4,5-trifluorophenyl)-1H-1,2,3-triazol-1-yl)tetrahydro-2H-pyran-3-ol], for which the IC50 on human Gal-1 (hGal-1) is 1570 nM; on human Gal-3 (hGal-3), 120 nM.

With `CO[C@@H]1[C@@H](n2cc(-c3cc(F)c(F)c(F)c3)nn2)[C@@H](O)[C@@H](CO)O[C@@H]1Cn1cc(C2CCN(S(=O)(=O)N(C)C)CC2)nn1` [Example 4.26, 4-(1-(((2R,3R,4S,5R,6R)-5-hydroxy-6-(hydroxymethyl)-3-methoxy-4-(4-(3,4,5-trifluorophenyl)-1H-1,2,3-triazol-1-yl)tetrahydro-2H-pyran-2-yl)methyl)-1H-1,2,3-triazol-4-yl)-N,N-dimethylpiperidine-1-sulfonamide], the results for the IC50 at human Gal-1 (hGal-1) and at human Gal-3 (hGal-3) were 1240 nM and 61 nM, respectively.

As for `CO[C@@H]1[C@@H](n2cc(-c3cc(F)c(F)c(F)c3)nn2)[C@@H](O)[C@@H](CO)O[C@@H]1Cn1cc(C2CCN(C(=O)NC(C)(C)C)CC2)nn1` [Example 4.27, N-(tert-butyl)-4-(1-(((2R,3R,4S,5R,6R)-5-hydroxy-6-(hydroxymethyl)-3-methoxy-4-(4-(3,4,5-trifluorophenyl)-1H-1,2,3-triazol-1-yl)tetrahydro-2H-pyran-2-yl)methyl)-1H-1,2,3-triazol-4-yl)piperidine-1-carboxamide], the results for the IC50 on human Gal-1 (hGal-1) and on human Gal-3 (hGal-3) were 380 nM and 34 nM, respectively.

For the compound `CO[C@@H]1[C@@H](n2cc(-c3cc(F)c(F)c(F)c3)nn2)[C@@H](O)[C@@H](CO)O[C@@H]1Cc1cn(C2CCS(=O)(=NCc3ccccc3)CC2)nn1` (stereo partly drawn) [Example 4.28, 1-(benzylimino)-4-(4-(((2R,3R,4S,5R,6R)-5-hydroxy-6-(hydroxymethyl)-3-methoxy-4-(4-(3,4,5-trifluorophenyl)-1H-1,2,3-triazol-1-yl)tetrahydro-2H-pyran-2-yl)methyl)-1H-1,2,3-triazol-1-yl)hexahydro-1l6-thiopyran 1-oxide], the IC50 was 120 nM on human Gal-1 (hGal-1) and 13 nM on human Gal-3 (hGal-3).

As to `CO[C@@H]1[C@@H](n2cc(-c3cc(F)c(F)c(F)c3)nn2)[C@@H](O)[C@@H](CO)O[C@@H]1Cn1cc(C2CCCCC2)nn1` [Example 4.29, (2R,3R,4S,5R,6R)-6-((4-cyclohexyl-1H-1,2,3-triazol-1-yl)methyl)-2-(hydroxymethyl)-5-methoxy-4-(4-(3,4,5-trifluorophenyl)-1H-1,2,3-triazol-1-yl)tetrahydro-2H-pyran-3-ol], the IC50 at human Gal-1 (hGal-1) is 2740 nM; at human Gal-3 (hGal-3), 310 nM.

Turning to `CO[C@@H]1[C@@H](n2cc(-c3cc(F)c(F)c(F)c3)nn2)[C@@H](O)[C@@H](CO)O[C@@H]1Cc1cn(C2CCCCC2)nn1` [Example 4.30, (2R,3R,4S,5R,6R)-6-((1-cyclohexyl-1H-1,2,3-triazol-4-yl)methyl)-2-(hydroxymethyl)-5-methoxy-4-(4-(3,4,5-trifluorophenyl)-1H-1,2,3-triazol-1-yl)tetrahydro-2H-pyran-3-ol], the IC50 worked out at 2920 nM on human Gal-1 (hGal-1) and 85 nM on human Gal-3 (hGal-3).

For `CO[C@@H]1[C@@H](n2cc(-c3cc(F)c(F)c(F)c3)nn2)[C@@H](O)[C@@H](CO)O[C@@H]1Cc1cn(C2CCS(=O)(=NC(C)C)CC2)nn1` (stereo partly drawn) [Example 4.31, 4-(4-(((2R,3R,4S,5R,6R)-5-hydroxy-6-(hydroxymethyl)-3-methoxy-4-(4-(3,4,5-trifluorophenyl)-1H-1,2,3-triazol-1-yl)tetrahydro-2H-pyran-2-yl)methyl)-1H-1,2,3-triazol-1-yl)-1-(isopropylimino)hexahydro-1l6-thiopyran 1-oxide], the IC50 turned out to be 320 nM at human Gal-1 (hGal-1) and 27 nM on human Gal-3 (hGal-3).

Regarding `CO[C@@H]1[C@@H](n2cc(-c3cc(F)c(F)c(F)c3)nn2)[C@@H](O)[C@@H](CO)O[C@@H]1Cn1cc(C2CCN(C(=O)NC3CC3)CC2)nn1` [Example 4.32, N-cyclopropyl-4-(1-(((2R,3R,4S,5R,6R)-5-hydroxy-6-(hydroxymethyl)-3-methoxy-4-(4-(3,4,5-trifluorophenyl)-1H-1,2,3-triazol-1-yl)tetrahydro-2H-pyran-2-yl)methyl)-1H-1,2,3-triazol-4-yl)piperidine-1-carboxamide], the results for the IC50 on human Gal-1 (hGal-1) and on human Gal-3 (hGal-3) were 884 nM and 65 nM, respectively.

Take `CO[C@@H]1[C@@H](n2cc(-c3cc(F)c(F)c(F)c3)nn2)[C@@H](O)[C@@H](CO)O[C@@H]1Cc1cn(C2CCS(=O)(=NC3CCC(F)(F)CC3)CC2)nn1` (stereo partly drawn) [Example 4.33, 1-((4,4-difluorocyclohexyl)imino)-4-(4-(((2R,3R,4S,5R,6R)-5-hydroxy-6-(hydroxymethyl)-3-methoxy-4-(4-(3,4,5-trifluorophenyl)-1H-1,2,3-triazol-1-yl)tetrahydro-2H-pyran-2-yl)methyl)-1H-1,2,3-triazol-1-yl)hexahydro-1l6-thiopyran 1-oxide]: the half-inhibitory concentration (IC50) is 220 nM at human Gal-1 (hGal-1) and 71 nM on human Gal-3 (hGal-3).

As to `CO[C@@H]1[C@@H](n2cc(-c3ccc(Cl)c(F)c3)nn2)[C@@H](O)[C@@H](CO)O[C@@H]1Cc1cn(C2CCN(C(=O)OCc3ccccc3)CC2)nn1` [Example 4.34, benzyl 4-(4-(((2R,3R,4S,5R,6R)-4-(4-(4-chloro-3-fluorophenyl)-1H-1,2,3-triazol-1-yl)-5-hydroxy-6-(hydroxymethyl)-3-methoxytetrahydro-2H-pyran-2-yl)methyl)-1H-1,2,3-triazol-1-yl)piperidine-1-carboxylate], the IC50 at human Gal-1 (hGal-1) turned out to be 430 nM; on human Gal-3 (hGal-3), 25 nM.

On to `CO[C@@H]1[C@@H](n2cc(-c3cccc(F)c3)nn2)[C@@H](O)[C@@H](CO)O[C@@H]1Cc1cn(C2CCN(C(=O)OCc3ccccc3)CC2)nn1` [Example 4.35, benzyl 4-(4-(((2R,3R,4S,5R,6R)-4-(4-(3-fluorophenyl)-1H-1,2,3-triazol-1-yl)-5-hydroxy-6-(hydroxymethyl)-3-methoxytetrahydro-2H-pyran-2-yl)methyl)-1H-1,2,3-triazol-1-yl)piperidine-1-carboxylate], for which the IC50 on human Gal-1 (hGal-1) is 150 nM; on human Gal-3 (hGal-3) it was 40 nM.

Take `CO[C@@H]1[C@@H](n2cc(-c3ccc(Br)c(F)c3)nn2)[C@@H](O)[C@@H](CO)O[C@@H]1Cc1cn(C2CCN(C(=O)OCc3ccccc3)CC2)nn1` [Example 4.36, benzyl 4-(4-(((2R,3R,4S,5R,6R)-4-(4-(4-bromo-3-fluorophenyl)-1H-1,2,3-triazol-1-yl)-5-hydroxy-6-(hydroxymethyl)-3-methoxytetrahydro-2H-pyran-2-yl)methyl)-1H-1,2,3-triazol-1-yl)piperidine-1-carboxylate]: the IC50 came out at 570 nM at human Gal-1 (hGal-1) and 19 nM at human Gal-3 (hGal-3).

`CO[C@@H]1[C@@H](n2cc(-c3cc(F)cc(F)c3)nn2)[C@@H](O)[C@@H](CO)O[C@@H]1Cc1cn(C2CCN(C(=O)OCc3ccccc3)CC2)nn1` [Example 4.37, benzyl 4-(4-(((2R,3R,4S,5R,6R)-4-(4-(3,5-difluorophenyl)-1H-1,2,3-triazol-1-yl)-5-hydroxy-6-(hydroxymethyl)-3-methoxytetrahydro-2H-pyran-2-yl)methyl)-1H-1,2,3-triazol-1-yl)piperidine-1-carboxylate]: the results for the IC50 on human Gal-1 (hGal-1) and on human Gal-3 (hGal-3) were 170 nM and 15 nM, respectively.

On to `CO[C@@H]1[C@@H](n2cc(-c3cc(F)c(F)c(F)c3)nn2)[C@@H](O)[C@@H](CO)O[C@@H]1Cn1cc(C(C)(C)C)nn1` [Example 4.38, (2R,3R,4S,5R,6R)-6-((4-(tert-butyl)-1H-1,2,3-triazol-1-yl)methyl)-2-(hydroxymethyl)-5-methoxy-4-(4-(3,4,5-trifluorophenyl)-1H-1,2,3-triazol-1-yl)tetrahydro-2H-pyran-3-ol], for which the IC50 came out at 1810 nM on human Gal-1 (hGal-1) and 93 nM at human Gal-3 (hGal-3).

As for `CCOC(=O)N1CCC(c2cn(C[C@H]3O[C@H](CO)[C@H](O)[C@H](n4cc(-c5cc(F)c(F)c(F)c5)nn4)[C@H]3OC)nn2)CC1` [Example 4.39, ethyl 4-(1-(((2R,3R,4S,5R,6R)-5-hydroxy-6-(hydroxymethyl)-3-methoxy-4-(4-(3,4,5-trifluorophenyl)-1H-1,2,3-triazol-1-yl)tetrahydro-2H-pyran-2-yl)methyl)-1H-1,2,3-triazol-4-yl)piperidine-1-carboxylate], the IC50 on human Gal-1 (hGal-1) is 520 nM; at human Gal-3 (hGal-3), 44 nM.

With `CO[C@@H]1[C@@H](n2cc(-c3cc(F)c(F)c(F)c3)nn2)[C@@H](O)[C@@H](CO)O[C@@H]1Cn1cc(C2CCOCC2)nn1` [Example 4.40, (2R,3R,4S,5R,6R)-2-(hydroxymethyl)-5-methoxy-6-((4-(tetrahydro-2H-pyran-4-yl)-1H-1,2,3-triazol-1-yl)methyl)-4-(4-(3,4,5-trifluorophenyl)-1H-1,2,3-triazol-1-yl)tetrahydro-2H-pyran-3-ol], the results for the IC50 on human Gal-1 (hGal-1) and on human Gal-3 (hGal-3) were 3920 nM and 160 nM, respectively.
